Assay results: patent US20220340976A1, “RAPID PREDICTION OF DRUG RESPONSIVENESS” (THE BROAD INSTITUTE, INC., priority 2019, published 2022)
“Also recorded” adds a separate entry of the source.

Legend:
[1] = tested on: pools of well-characterized cancer cell lines; assay: MIX-Seq: scRNA-seq transcriptional response profiling of drug-treated cell line pools; type: cell-based, human
Experimental: Cell line pools were made in sets of 25 cell lines. These 25 cell line pools were chosen based on doubling time and were grown in RPMI in the absence of phenol red and with 10% FBS. Cell lines were then washed with 10 mLs of PBS, and trypsinized with 1 mL trypsin which was then removed. Ten mLs of RPMI media were added to the cells post trypsinization and resuspended. Cells were then counted by a Nexcelom cellometer using 10 uL of cell suspension and 10 ul of Trypan blue. Equal numbers of cells per cell line were mixed together and spun down at 1,250 RPM for 5 minutes. Media was aspirated and the cells were resuspended in Sigma Cell Freezing media and frozen in 1 mL aliquots. This process was repeated for all of the 25 cell line pools. For MIX-Seq experiments involving larger pools, multiple 25 cell line pools were thawed in RPMI with 10% FBS, spun down and resuspended in 5 mLs of RPMI media. Cells were then counted and equal numbers were combined together on the day of plating to form larger pools of up to ˜100 cell lines.
For drug treatment experiments, cell line pools were cultured in RPMI containing 10% fetal bovine serum, in the absence of phenol red and penicillin/streptomycin. Cell line pools were validated as Mycoplasma free prior to initiating the experiment. Cell line pools were plated at 200,000 cells per well in 6 well plates containing 2 mL of RPMI culture media described above. […] Cell pools were plated ˜16-20 hours prior to drug treatment. Cells were treated with the described drugs or vehicle (DMSO) with a 0.2% final media DMSO concentration.
Generally cells were harvested after drug treatment using standard cell culture methods. Briefly, after drug treatment cells that were in suspension (presumably containing dead cells from drug treatment) were collected and reserved for addition to the adherent cell fraction. Adherent cells were washed once with 1×PBS, trypsinized in 1 mL trypsin, incubated for 3-7 minutes at 37 C, and then trypsin inactivated with 1 mL growth media. For Cell Hashing, cells were treated with TrypLE Express (ThermoFisher) instead of trypsin to reduce the amount of cell surface proteins digested that may affect the binding of Cell Hashing antibodies.
After trypsinization, adherent and suspension cells were combined for each treatment, pelleted, and resuspended in Cell Capture Buffer (lx PBS with 0.04% BSA). Cells were counted (including trypan blue non-viable cells) and resuspended at a concentration of 1,000 cells per microliter for standard loading on the Chromium Controller (10× Genomics), or at 1,500 cells per microliter for “super loaded” samples. Up to 40,000 cells were loaded per 10× channel for “super loaded” samples, with expected recovery of up to 20,000 cells per channel. Cell suspensions were captured on a 10× Chromium controller using Single Cell 3′ reagent chemistries (either version 2 or and version 3 reagents) FIG. 26.
Sequencing data were processed using 10× Cell Ranger software, run using the Cumulus cloud-based analysis framework (Li et al. 2019). Initial experiments were done with 10× Single Cell 3′ v2 chemistry, and were processed using version 2 of the Cell Ranger software. In later experiments v3 chemistry and the corresponding version 3 of Cell Ranger were used. Reads were aligned to the hg19 reference genome.
To estimate the average transcriptional response of each cell line to a perturbation, the data were first ‘sum-collapsed’—summing read counts across cells for each cell line and treatment condition—to produce a bulk RNA-seq style read counts profile for each sample (Crowell et al. 2019; Lun & Marioni 2017). […]

[2] = tested on: pools of cancer cell lines; assay: Relative cell line abundance estimated from pooled scRNA-seq; type: cell-based, human; details: particularly 24 hours post-treatment
Source text: Estimates of the effects of perturbations on relative cell line abundance were obtained by counting the number of (QC-passing) single cells from each cell line in each treatment condition, adding a ‘pseudo-count’ of 1, and normalizing counts across cell lines per condition. These relative abundance estimates were averaged across samples for each treatment condition to compute the log2-fold-change difference between drug-treated and control relative cell line abundances.
For selective compounds, cell cycle effects were also well-correlated with measured viability effects, such that drugs typically had larger effects in more sensitive cell lines (FIG. 18).

[3] = tested on: cancer cell lines; details: GDSC and PRISM drug sensitivity data; cited from earlier work
[4] = tested on: pool of 24 cell lines; assay: Trametinib time course: MIX-Seq combined with Cell Hashing; type: cell-based, human
Experimental: For the trametinib time course experiment, cells were treated with trametinib with a staggered dosing schedule so all timepoints could be collected simultaneously. Cells were plated 19 hours prior to the first drug treatment, corresponding to the 48 hour time point. Cells were harvested for 10× capture ˜67 hours after initial seeding.
Cell Hashing (Stoeckius et al., 2018) was performed using the cell harvest method described above with the following changes. All steps were performed on ice. Harvested cells were resuspended in Cell Hashing Staining Buffer (lx PBS with 2% BSA and 0.02% Tween) prior to cell counting. Samples were counted in duplicate with two technical replicates by Countess (Life Technologies) to estimate total cell number. Up to 1,000,000 cells (range 3e5-1e6 cells) were resuspended in 100 microliters of Cell Hashing Staining Buffer. Cells were blocked with 10 microliters of Human TruStain FcX blocking solution (BioLegend) for 10 minutes at 4° C. 100 microliter cell suspensions in Cell Hashing Staining Buffer were then incubated with 2 μL of the appropriate BioLegend TotalSeq™-A Hashing antibody A Hashing antibody (a 1:50 dilution, using a total of 1 μg of antibody per cell suspension). TotalSeq™-A anti-human Hashtag antibodies #4-10 and 12-15 (product codes: 394607, 394609, 394611, 394613, 394615, 394617, 394619, 394623, 394625, 394627, 394629) were used. Cells were washed three times with 0.5 mL of Cell Hashing Staining Buffer and filtered through low volume 40 μm cell strainers (Flowmi). All cell suspensions were recounted to achieve a uniform concentration of 1,500 cells per microliter before pooling for 10× capture. A detailed general protocol is available (www.protocols.io/private/4AC0F6594480B498D8B60EAF6F518E66).
Classification of single-cell treatment conditions, as well as doublet classification, from the hashtag read counts data were performed using DemuxEM (Gaublomme et al. 2019), with default parameters.
The same approach described above was used to estimate the viability-related and viability-independent components of the response at each time point post-trametinib treatment. As substantial transcriptional changes across time points after DMSO-treatment were not observed […], data across DMSO conditions was pooled for analysis.
Leveraging this, responses of a pool of 24 cell lines to trametinib were measured along five time points, ranging from 3 to 48 hours post-treatment, using Cell Hashing to multiplex treatment conditions (FIG. 5A). As controls, DMSO-treated samples were included at each of the 5 time points, in addition to untreated samples, for a total of 11 conditions. Hashtag reads provided robust labeling of treatment conditions, with good tagging efficiency across all cell lines (FIGS. 21A and 21B). Since substantial differences in DMSO-treated cells were not observed across time points (FIG. 22), they were pooled together for subsequent analysis, yielding a total of 13,713 clearly-tagged single cells across all treatment conditions and cell lines.

[5] = tested on: pools of cancer cell lines; assay: Single-cell heterogeneity analysis of drug responses (clustering of scRNA-seq profiles); type: cell-based, human; details: lung cell line IALM, 24 hours post-treatment
Source text: Specifically, the edgeR quasi-likelihood approach was used (Lun et al. 2016), following the pipeline in Soneson et al. 2018, with the cell detection rate (the fraction of genes with non-zero reads detected) included as a covariate.
To identify subpopulations of bortezomib treated cells (FIGS. 4D-4F), Seurat's default methods were used to normalize the data, detect variable genes, and compute PCs (using 5000 most variable genes, and 50 PCs). Seurat's default clustering methods were then used to cluster cells for each cell line (using the 20 nearest neighbors, and a clustering resolution parameter of 0.25).
To identify sub-populations of cells from a given cell line in a consistent fashion across baseline and treatment conditions (for analysis and presentation in FIG. 19), the following procedure was employed. After restricting to cells from the target cell line, the scTransform method (Hafemeiester et al. 2019) was used to normalize the data, identify 5,000 variable genes, and regress out experimental condition as a covariate to align clusters across conditions. Seurat's default clustering methods (using the top 10 PCs, 20 nearest neighbors, and a clustering resolution parameter of 0.25) were then used to identify clusters jointly across treated and control cells.

[6] = 99 cell-line pool, 24 hours post-treatment
[7] = integrating across all cell lines

| Structure (SMILES) | robust transcriptional response signature ([1]; 6 and/or 24 hours post-treatment) | drug-induced change in relative cell abundance versus measured drug sensitivity [2] | long-term viability response across cell lines [3] | viability-independent response component (β0) [1, 6] | viability-related response component (β1) [1, 6] | EGR1 expression ([4]; 3 hours after treatment, sensitive cell line RCM1 and insensitive line TEN) | time at which viability-independent down-regulation of the KRAS signaling pathway emerged [4, 7] [hours after treatment] | time at which viability-related down-regulation of cell cycle genes started [4, 7] [hours after treatment] | time of maximal down-regulation of viability-independent genes such as EGR1 and DUSP6 [4, 7] [hours post-treatment] | MCMI expression ([4]; sensitive line RCM1 vs insensitive line TEN, time course 3 to 48 hours) | time of selective down-regulation of GINS2, E2F1 and MCM4 in sensitive cell lines ([4]; viability-related response) | difference in response between two baseline subpopulations [5] |
| --- | --- | --- | --- | --- | --- | --- | --- | --- | --- | --- | --- | --- |
| Cc1c2c(nn1C)CSCc1cc(n(C)n1)CSc1cc(c3ccccc3c1)OCCCc1c(C(=O)O)n(C)c3c-2c(Cl)ccc13 [AZD5591] | did not produce strong and/or selective transcriptional responses; also recorded: did not produce robust transcriptional response signatures; also recorded: a robust transcriptional response to the drug was not observed | this relationship was observed most strongly | strong selective viability responses | – | – | – | – | – | – | – | – | – |
| CC(=O)Nc1cccc(-n2c(=O)n(C3CC3)c(=O)c3c(Nc4ccc(I)cc4F)n(C)c(=O)c(C)c32)c1 [trametinib] | – | – | – | strong down-regulation of MAPK signaling genes, including EGR1, ETV4/5, DUSP4/5/6, and SPRY2/4, KRAS signaling pathways, and TNF-alpha signaling, as well as up-regulation of the interferon response | strong down-regulation of cell-cycle processes | dramatically down-regulated | 3 | 24 | 3 | selectively down-regulated only in the sensitive line RCM1, and only after 12-24 hours post-treatment | 12-24 hours post-treatment | subtle but significant differences |
